What was measured:
Type in all cases: in vivo
[1] = system: redroot pigweed (Amaranthus retroflexus, AMARE); experiment: Pre-emerge test, greenhouse herbicide activity screening; details: for phytotoxicity rating AMARE: pre-emerge, 14 days after application, scale 0-100; for Pre-emerge Herbicidal Activity AMARE: phytotoxicity rating 0-100, 14 days after application
Method in brief: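 Compounds in acetone were track-sprayed at 15-1000 g ai/ha (187 l/ha) on sandy loam pots: pre-emerge one day after seeding, post-emerge at 2-3 leaf stage with 0.25% v/v non-ionic surfactant. Phytotoxicity was rated 14 days later on a 0 (no damage) to 100 (complete death) scale.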

[2] = system: barnyardgrass (Echinochloa crus-galli, ECHCG); experiment: as above; details: for phytotoxicity rating ECHCG: pre-emerge, 14 days after application, scale 0-100; for Pre-emerge Herbicidal Activity ECHCG: phytotoxicity rating 0-100, 14 days after application
Excerpt: (§1) A standard greenhouse herbicide activity screening system was used to evaluate the herbicidal efficacy and crop safety of these test compounds. Seven broadleaf weed species including redroot pigweed (Amaranthus retroflexus, AMARE, velvetleaf (Abutilon theophrasti, ABUTH), sicklepod (Cassia obtusifolia, CASOB), ivyleaf morningglory (Ipomoea hederacea, IPOHE), lambsquarters (Chenopodium album, CHEAL), common ragweed (Ambrosia artemisizfolia L., AMBEL), and cocklebur (Xanthium strumarium, XANST) were used as test species. Four grass weed species including green foxtail (Setaria viridis, SETVI), barnyardgrass (Echinochloa crus-galli, ECHCG), johnsongrass (Sorghum halepense, SORHA), and large crabgrass (Digitaria sanguinalis, DIGSA) were also used. In addition, three crop species, field corn (Zea mays L., var. Dekalb 535, CORN), soybean (Glycine max L., var. Pella 86, SOY), and is upland rice (Oryza sp., var. Tebonnet, RICE) were included.
(§2) All plants were grown in 10 cm square plastic pots which were filled with a sandy loam soil mix. For pre-emerge tests, seeds were planted one day prior to application of the test compounds. For post-emerge tests, seeds were planted 8-21 days prior to the test to allow emergence and good foliage development prior to application of the test substances. At the time of the post-emerge application, plants of all species were usually at the 2-3 leaf stage of development.
(§3) All test compounds Were dissolved in acetone and applied to the test units in a volume of 187 l /ha. Test materials were applied at rates ranging from 15 g ai/ha to 1000 g ai/ha using a track sprayer equipped with a TJ8001E even flow flat fan spray nozzle. Plants were arranged on a shelf so that the top of the canopy (post-emerge) or top of the soil surface (pre-emerge) was 40-45 cm below the nozzle. Pressurized air was used to force the test solution through the nozzle as it was mechanically advanced (via electrically driven chain drive) over the top of all test plants/pots. This application simulates a typical commercial field herbicide application.
(§4) In the post-emerge test, a commercial non-ionic surfactant was also included (0.25% v/v) to enhance wetting of the leaf surfaces of target plants. Immediately after application, test units of the pre-emerge applications were watered at the soil surface to incorporate the test materials. Subsequently, these test units were bottom-watered. Post-emerge test units were always bottom-watered.
(§5) At 14 days after application of the test materials, phytotoxicity ratings were recorded. A rating scale of 0-100 was used as previously described in Research Methods in Weed Science, 2nd edition, B. Truelove, Ed., Southern Weed Science Society, Auburn University, Auburn, Ala. 1977. Briefly, “0” corresponds to no damage and “100” corresponds to complete death of all plants in the test unit. This scale was used both to determine efficacy against weed species and damage to crop species. Herbicide activity data for various compounds of this invention, which are shown by compound No. in Tables 1-8, are shown in Tables 11 and 12.

[3] = system: green foxtail (Setaria viridis, SETVI); experiment: as above; details: for phytotoxicity rating SETVI: pre-emerge, 14 days after application, scale 0-100; for Pre-emerge Herbicidal Activity SETVI: phytotoxicity rating 0-100, 14 days after application
Excerpt: as §1, §2, §3, §4, §5

[4] = system: ivyleaf morningglory (Ipomoea hederacea, IPOHE); experiment: as above; details: for phytotoxicity rating IPOHE: pre-emerge, 14 days after application, scale 0-100; for Pre-emerge Herbicidal Activity IPOHE: phytotoxicity rating 0-100, 14 days after application
Excerpt: as §1, §2, §3, §4, §5

[5] = system: lambsquarters (Chenopodium album, CHEAL); experiment: as above; details: for phytotoxicity rating CHEAL: pre-emerge, 14 days after application, scale 0-100; for Pre-emerge Herbicidal Activity CHEAL: phytotoxicity rating 0-100, 14 days after application
Excerpt: as §1, §2, §3, §4, §5

[6] = system: large crabgrass (Digitaria sanguinalis, DIGSA); experiment: as above; details: for phytotoxicity rating DIGSA: pre-emerge, 14 days after application, scale 0-100; for Pre-emerge Herbicidal Activity DIGSA: phytotoxicity rating 0-100, 14 days after application
Excerpt: as §1, §2, §3, §4, §5

[7] = system: sicklepod (Cassia obtusifolia, CASOB); experiment: as above; details: for phytotoxicity rating CASOB: pre-emerge, 14 days after application, scale 0-100; for Pre-emerge Herbicidal Activity CASOB: phytotoxicity rating 0-100, 14 days after application
Excerpt: as §1, §2, §3, §4, §5

[8] = system: velvetleaf (Abutilon theophrasti, ABUTH); experiment: as above; details: for phytotoxicity rating ABUTH: pre-emerge, 14 days after application, scale 0-100; for Pre-emerge Herbicidal Activity ABUTH: phytotoxicity rating 0-100, 14 days after application
Excerpt: as §1, §2, §3, §4, §5

[9] = system: field corn (Zea mays L., var. Dekalb 535, CORN); experiment: Pre-emerge test, crop safety; details: for phytotoxicity rating CORN (crop damage): pre-emerge, 14 days after application, scale 0-100; for Pre-emerge Herbicidal Activity CORN: crop damage rating 0-100, 14 days after application
Method in brief: (§6)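 Rating: 0–100 visual injury, 14 DAA. Application: acetone, 187 l/ha, 15–1000 g ai/ha, flat-fan track sprayer with nozzle 40–45 cm above soil or canopy. Post-emerge runs used 0.25% v/v surfactant on 2–3 leaf plants.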

[10] = system: upland rice (Oryza sp., var. Tebonnet, RICE); experiment: Pre-emerge test, crop safety; details: for phytotoxicity rating RICE (crop damage): pre-emerge, 14 days after application, scale 0-100; for Pre-emerge Herbicidal Activity RICE: crop damage rating 0-100, 14 days after application
Method in brief: as §6

[11] = system: barnyardgrass (Echinochloa crus-galli, ECHCG); experiment: Post-emerge test, greenhouse herbicide activity screening; details: post-emerge, 14 days after application, rating scale 0-100
Excerpt: as §1, §2, §3, §4, §5

[12] = system: green foxtail (Setaria viridis, SETVI); experiment: as above; details: post-emerge, 14 days after application, rating scale 0-100
Excerpt: as §1, §2, §3, §4, §5

[13] = system: ivyleaf morningglory (Ipomoea hederacea, IPOHE); experiment: as above; details: post-emerge, 14 days after application, rating scale 0-100
Excerpt: as §1, §2, §3, §4, §5

[14] = system: lambsquarters (Chenopodium album, CHEAL); experiment: as above; details: post-emerge, 14 days after application, rating scale 0-100
Excerpt: as §1, §2, §3, §4, §5

[15] = system: large crabgrass (Digitaria sanguinalis, DIGSA); experiment: as above; details: post-emerge, 14 days after application, rating scale 0-100
Excerpt: as §1, §2, §3, §4, §5

[16] = system: redroot pigweed (Amaranthus retroflexus, AMARE); experiment: as above; details: post-emerge, 14 days after application
Excerpt: as §1, §2, §3, §4, §5

[17] = system: sicklepod (Cassia obtusifolia, CASOB); experiment: as above; details: post-emerge, 14 days after application, rating scale 0-100
Excerpt: as §1, §2, §3, §4, §5

[18] = system: velvetleaf (Abutilon theophrasti, ABUTH); experiment: as above; details: post-emerge, 14 days after application, rating scale 0-100
Excerpt: as §1, §2, §3, §4, §5

[19] = system: field corn (Zea mays L., var. Dekalb 535, CORN); experiment: Post-emerge test, crop safety; details: post-emerge, 14 days after application, rating scale 0-100
Method in brief: (§7)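 Each test used a mechanized track sprayer delivering 187 l/ha of acetone solution at 15–1000 g ai/ha. Post-emerge foliage at 2–3 leaves was treated with added 0.25% v/v non-ionic surfactant and bottom-watered only. Injury was assessed on day 14, where 100 means total kill.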

[20] = system: upland rice (Oryza sp., var. Tebonnet, RICE); experiment: Post-emerge test, crop safety; details: post-emerge, 14 days after application, rating scale 0-100
Method in brief: as §7

[21] = 250 g ai/ha, rating scale 0-100

## C=Cc1ccc(C(=O)Nc2c(OC)c(Br)cc(F)c2-n2c(=O)cc(C(F)(F)F)n(C)c2=O)cc1 [2-182]
[1]; 63 g ai/ha
  phytotoxicity rating AMARE: 90
[1]; 250 g ai/ha
  phytotoxicity rating AMARE: 100
[2]; 63 g ai/ha
  phytotoxicity rating ECHCG: 10
[2]; 250 g ai/ha
  phytotoxicity rating ECHCG: 60
[3]; 63 g ai/ha
  phytotoxicity rating SETVI: 30
[3]; 250 g ai/ha
  phytotoxicity rating SETVI: 90
[4]; 63 g ai/ha
  phytotoxicity rating IPOHE: 0
[4]; 250 g ai/ha
  phytotoxicity rating IPOHE: 100
[5]; 63 g ai/ha
  phytotoxicity rating CHEAL: 100
[5]; 250 g ai/ha
  phytotoxicity rating CHEAL: 100
[6]; 63 g ai/ha
  phytotoxicity rating DIGSA: 30
[6]; 250 g ai/ha
  phytotoxicity rating DIGSA: 90
[7]; 63 g ai/ha
  phytotoxicity rating CASOB: 10
[7]; 250 g ai/ha
  phytotoxicity rating CASOB: 60
[8]; 63 g ai/ha
  phytotoxicity rating ABUTH: 100
[8]; 250 g ai/ha
  phytotoxicity rating ABUTH: 100
[9]; 63 g ai/ha
  phytotoxicity rating CORN (crop damage): 0
[9]; 250 g ai/ha
  phytotoxicity rating CORN (crop damage): 10
[10]; 63 g ai/ha
  phytotoxicity rating RICE (crop damage): 15
[10]; 250 g ai/ha
  phytotoxicity rating RICE (crop damage): 70
[11]; 63 g ai/ha
  ECHCG phytotoxicity rating: 0
[11]; 250 g ai/ha
  ECHCG phytotoxicity rating: 30
[12]; 63 g ai/ha
  SETVI phytotoxicity rating: 10
[12]; 250 g ai/ha
  SETVI phytotoxicity rating: 80
[13]; 63 g ai/ha
  IPOHE phytotoxicity rating: 100
[13]; 250 g ai/ha
  IPOHE phytotoxicity rating: 100
[14]; 63 g ai/ha
  CHEAL phytotoxicity rating: 95
[14]; 250 g ai/ha
  CHEAL phytotoxicity rating: 100
[15]; 63 g ai/ha
  DIGSA phytotoxicity rating: 0
[15]; 250 g ai/ha
  DIGSA phytotoxicity rating: 20
[16]; 63 g ai/ha, rating scale 0-100
  AMARE phytotoxicity rating: 90
[16]; [21]
  AMARE phytotoxicity rating: 95
[17]; 63 g ai/ha
  CASOB phytotoxicity rating: 60
[17]; 250 g ai/ha
  CASOB phytotoxicity rating: 95
[18]; 63 g ai/ha
  ABUTH phytotoxicity rating: 100
[18]; 250 g ai/ha
  ABUTH phytotoxicity rating: 100
[19]; 63 g ai/ha
  CORN phytotoxicity rating (crop damage): 5
[19]; 250 g ai/ha
  CORN phytotoxicity rating (crop damage): 70
[20]; 63 g ai/ha
  RICE phytotoxicity rating (crop damage): 0

## COc1c(Cl)cc(F)c(-n2c(=O)cc(C(F)(F)F)n(C)c2=O)c1NC(=O)OCc1ccc(C(C)C)cc1 [4-42]
[1]; 63 g ai/ha
  Pre-emerge Herbicidal Activity AMARE: 30
[1]; 250 g ai/ha
  Pre-emerge Herbicidal Activity AMARE: 90
[2]; 63 g ai/ha
  Pre-emerge Herbicidal Activity ECHCG: 0
[2]; 250 g ai/ha
  Pre-emerge Herbicidal Activity ECHCG: 40
[3]; 63 g ai/ha
  Pre-emerge Herbicidal Activity SETVI: 30
[3]; 250 g ai/ha
  Pre-emerge Herbicidal Activity SETVI: 100
[4]; 63 g ai/ha
  Pre-emerge Herbicidal Activity IPOHE: 0
[4]; 250 g ai/ha
  Pre-emerge Herbicidal Activity IPOHE: 40
[5]; 63 g ai/ha
  Pre-emerge Herbicidal Activity CHEAL: 40
[5]; 250 g ai/ha
  Pre-emerge Herbicidal Activity CHEAL: 100
[6]; 63 g ai/ha
  Pre-emerge Herbicidal Activity DIGSA: 10
[6]; 250 g ai/ha
  Pre-emerge Herbicidal Activity DIGSA: 60
[7]; 63 g ai/ha
  Pre-emerge Herbicidal Activity CASOB: 0
[7]; 250 g ai/ha
  Pre-emerge Herbicidal Activity CASOB: 100
[8]; 63 g ai/ha
  Pre-emerge Herbicidal Activity ABUTH: 60
[8]; 250 g ai/ha
  Pre-emerge Herbicidal Activity ABUTH: 100
[9]; 63 g ai/ha
  Pre-emerge Herbicidal Activity CORN: 0
[9]; 250 g ai/ha
  Pre-emerge Herbicidal Activity CORN: 0
[10]; 63 g ai/ha
  Pre-emerge Herbicidal Activity RICE: 0
[10]; 250 g ai/ha
  Pre-emerge Herbicidal Activity RICE: 0
[11]; 63 g ai/ha
  phytotoxicity rating ECHCG: 0
[11]; 250 g ai/ha
  phytotoxicity rating ECHCG: 10
[12]; 63 g ai/ha
  phytotoxicity rating SETVI: 0
[12]; 250 g ai/ha
  phytotoxicity rating SETVI: 0
[13]; 63 g ai/ha
  phytotoxicity rating IPOHE: 40
[13]; 250 g ai/ha
  phytotoxicity rating IPOHE: 30
[14]; 63 g ai/ha
  phytotoxicity rating CHEAL: 80
[14]; 250 g ai/ha
  phytotoxicity rating CHEAL: 90
[15]; 63 g ai/ha
  phytotoxicity rating DIGSA: 0
[15]; 250 g ai/ha
  phytotoxicity rating DIGSA: 0
[16]; 63 g ai/ha, rating scale 0-100 (0 no damage, 100 complete death)
  phytotoxicity rating AMARE: 75
[16]; [21]
  phytotoxicity rating AMARE: 100
[17]; 63 g ai/ha
  phytotoxicity rating CASOB: 0
[17]; 250 g ai/ha
  phytotoxicity rating CASOB: 0
[18]; 63 g ai/ha
  phytotoxicity rating ABUTH: 100
[18]; 250 g ai/ha
  phytotoxicity rating ABUTH: 100
[19]; 63 g ai/ha
  phytotoxicity rating CORN (crop damage): 0
[19]; 250 g ai/ha
  phytotoxicity rating CORN (crop damage): 0
[20]; 63 g ai/ha
  phytotoxicity rating RICE (crop damage): 0
[20]; 250 g ai/ha
  phytotoxicity rating RICE (crop damage): 0

Source: US6355799B1, “Substituted benzene compounds, process for their preparation, and herbicidal and defoliant compositions containing them” (ISK Americas Incorporated, priority 1997, dated 2002)
